Measurements taken from ChEMBL document CHEMBL1201862, “PubChem BioAssay data set” (2004).
Calls of active or inactive are those of the source.

Experiments:
Nonstructural protein 1 = Nonstructural protein 1 (Influenza A virus, UniProt Q194T2); assay type: functional, Influenza A virus (A/California/07/2009(H1N1))
[1] = viability of uninfected HEp-2 cells – cell-based, HTS, cytotoxicity control for RSV inhibitor project, dose response (AID 2410); assay type: functional; conditions: human respiratory syncytial virus
[2] = target: Voltage-dependent T-type calcium channel subunit alpha-1H (Homo sapiens, UniProt O95180); assay type: functional;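 further: channel activity triggered by adding a high calcium stimulation buffer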
cells [3] = assay: cells
Hexokinase HKDC1 = target: T1, Hexokinase HKDC1 (Homo sapiens, UniProt Q2TB90); assay: inhibition of HKDC1 glucose phosphorylation – biochemical, W721R variant, dose response (AID 504729); assay type: functional
T1 sequence (Q2TB90 whole entry): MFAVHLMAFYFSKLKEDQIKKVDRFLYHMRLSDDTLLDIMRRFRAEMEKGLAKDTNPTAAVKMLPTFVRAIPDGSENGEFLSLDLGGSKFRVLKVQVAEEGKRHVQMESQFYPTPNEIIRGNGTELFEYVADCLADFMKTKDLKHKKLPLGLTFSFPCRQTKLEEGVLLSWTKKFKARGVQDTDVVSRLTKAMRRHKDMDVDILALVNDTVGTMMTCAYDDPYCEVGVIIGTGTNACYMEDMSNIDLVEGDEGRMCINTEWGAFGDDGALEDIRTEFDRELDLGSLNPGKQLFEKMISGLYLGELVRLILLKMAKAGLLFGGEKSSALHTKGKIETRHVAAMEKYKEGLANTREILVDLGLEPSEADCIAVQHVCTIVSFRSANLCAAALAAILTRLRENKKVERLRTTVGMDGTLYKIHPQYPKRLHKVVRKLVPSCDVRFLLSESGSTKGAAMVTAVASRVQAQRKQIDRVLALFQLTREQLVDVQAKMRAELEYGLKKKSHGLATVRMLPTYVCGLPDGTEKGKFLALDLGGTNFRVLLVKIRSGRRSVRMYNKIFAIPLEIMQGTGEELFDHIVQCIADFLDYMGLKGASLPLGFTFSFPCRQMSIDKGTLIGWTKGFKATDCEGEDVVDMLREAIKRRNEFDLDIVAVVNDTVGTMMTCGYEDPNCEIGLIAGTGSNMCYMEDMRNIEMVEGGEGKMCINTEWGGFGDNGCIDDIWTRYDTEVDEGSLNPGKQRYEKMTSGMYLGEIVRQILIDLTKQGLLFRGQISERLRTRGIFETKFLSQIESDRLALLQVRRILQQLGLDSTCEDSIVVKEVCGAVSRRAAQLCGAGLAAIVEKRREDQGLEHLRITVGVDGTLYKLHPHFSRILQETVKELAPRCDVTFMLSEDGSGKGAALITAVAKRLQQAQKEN

[4] = THP-1 cell cytotoxicity, dose response, cytotoxicity control for non-replicating M. tuberculosis project (AID 489025); assay type: functional
[5] = target: FAD-linked sulfhydryl oxidase ALR (Homo sapiens, UniProt P55789); assay: ALR-catalysed DTT oxidation blockers – biochemical, H2O2 detection, luminescence, cherry-pick, dose response (AID 493248)
cells [6] = assay type: functional
[7] = target: Glyceraldehyde-3-phosphate dehydrogenase (Homo sapiens, UniProt P04406)
[8] = target: T2, Alkaline phosphatase, tissue-nonspecific isozyme (Homo sapiens, UniProt P05186); assay: potency against alkaline phosphatase TNAP – biochemical, luminescent, dose response, SAR follow-up (AID 1056)
T2 sequence (P05186 whole entry): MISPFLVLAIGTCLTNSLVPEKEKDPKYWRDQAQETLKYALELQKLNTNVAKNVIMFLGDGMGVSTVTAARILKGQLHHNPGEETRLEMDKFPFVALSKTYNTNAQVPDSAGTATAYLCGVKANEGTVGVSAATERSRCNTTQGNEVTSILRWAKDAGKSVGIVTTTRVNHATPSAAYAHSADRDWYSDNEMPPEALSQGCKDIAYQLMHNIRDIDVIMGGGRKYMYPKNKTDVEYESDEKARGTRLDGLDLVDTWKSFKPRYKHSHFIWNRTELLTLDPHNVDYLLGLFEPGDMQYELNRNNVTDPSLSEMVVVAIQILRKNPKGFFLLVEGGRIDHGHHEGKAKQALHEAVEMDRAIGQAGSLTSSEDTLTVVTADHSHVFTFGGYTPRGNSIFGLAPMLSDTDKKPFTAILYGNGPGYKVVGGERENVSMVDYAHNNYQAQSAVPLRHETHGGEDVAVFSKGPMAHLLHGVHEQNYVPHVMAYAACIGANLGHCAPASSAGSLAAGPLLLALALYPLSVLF

Coagulation factor XII = target: T3, Coagulation factor XII (Homo sapiens, UniProt P00748); assay type: functional;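 further: activated factor XIIa alpha cleaving a fluorogenic AMC peptide substrate; inhibitor potency from loss of enzyme activity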
T3 sequence (P00748 whole entry): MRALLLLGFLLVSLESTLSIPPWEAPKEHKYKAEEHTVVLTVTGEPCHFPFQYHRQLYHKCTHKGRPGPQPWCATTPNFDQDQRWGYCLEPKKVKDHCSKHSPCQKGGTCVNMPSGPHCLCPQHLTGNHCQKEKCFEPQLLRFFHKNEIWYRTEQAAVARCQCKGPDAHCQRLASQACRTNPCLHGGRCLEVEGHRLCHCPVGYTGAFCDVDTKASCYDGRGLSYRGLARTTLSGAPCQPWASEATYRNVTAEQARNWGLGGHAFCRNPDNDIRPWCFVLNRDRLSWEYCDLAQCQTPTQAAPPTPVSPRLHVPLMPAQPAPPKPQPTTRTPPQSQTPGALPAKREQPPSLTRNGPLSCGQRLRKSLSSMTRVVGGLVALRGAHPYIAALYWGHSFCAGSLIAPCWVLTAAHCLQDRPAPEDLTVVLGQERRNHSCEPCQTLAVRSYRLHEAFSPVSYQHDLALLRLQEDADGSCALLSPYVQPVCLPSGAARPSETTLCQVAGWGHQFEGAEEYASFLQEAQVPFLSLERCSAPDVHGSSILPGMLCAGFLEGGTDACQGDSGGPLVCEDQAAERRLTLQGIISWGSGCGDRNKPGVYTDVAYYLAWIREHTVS

[9] = target: T4, Calpain-2 catalytic subunit (Sus scrofa, UniProt P43367); assay: m-calpain protease blockers, concentration series – biochemical, fluorogenic peptide substrate, dose response (AID 1420); assay type: functional
T4 sequence (P43367 whole entry): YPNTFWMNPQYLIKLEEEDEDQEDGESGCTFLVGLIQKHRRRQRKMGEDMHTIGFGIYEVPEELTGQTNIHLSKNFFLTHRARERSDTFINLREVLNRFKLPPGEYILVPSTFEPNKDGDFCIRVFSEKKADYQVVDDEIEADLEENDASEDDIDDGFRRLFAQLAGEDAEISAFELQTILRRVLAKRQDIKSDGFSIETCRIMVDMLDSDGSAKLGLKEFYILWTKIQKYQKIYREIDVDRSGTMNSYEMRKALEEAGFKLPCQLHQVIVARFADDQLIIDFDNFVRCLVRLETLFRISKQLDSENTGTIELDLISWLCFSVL

Cytochrome P450 2D6 = Cytochrome P450 2D6 (Homo sapiens, UniProt P10635);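 further: CYP2D6 member of a cytochrome P450 panel assay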
[10] = system: Streptococcus sp. 'group A'; assay: Streptococcus pyogenes SK(-)GAS viability under kanamycin – luminescence, BacTiterGlo, confirmation, counter-screen for streptokinase expression inhibitor project, dose response (AID 1900); assay type: functional, organism-based
Streptokinase A = target: T5, Streptokinase A (Streptococcus pyogenes serotype M1, UniProt P10520); assay: viability-normalized secreted streptokinase activity reduction – plasminogen activation absorbance, OD405, dose response (AID 1914); assay type: functional, Streptococcus pyogenes M1 GAS;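 further: secreted streptokinase activity via plasminogen activation per viability signal from cell pellet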
T5 sequence (P10520 whole entry): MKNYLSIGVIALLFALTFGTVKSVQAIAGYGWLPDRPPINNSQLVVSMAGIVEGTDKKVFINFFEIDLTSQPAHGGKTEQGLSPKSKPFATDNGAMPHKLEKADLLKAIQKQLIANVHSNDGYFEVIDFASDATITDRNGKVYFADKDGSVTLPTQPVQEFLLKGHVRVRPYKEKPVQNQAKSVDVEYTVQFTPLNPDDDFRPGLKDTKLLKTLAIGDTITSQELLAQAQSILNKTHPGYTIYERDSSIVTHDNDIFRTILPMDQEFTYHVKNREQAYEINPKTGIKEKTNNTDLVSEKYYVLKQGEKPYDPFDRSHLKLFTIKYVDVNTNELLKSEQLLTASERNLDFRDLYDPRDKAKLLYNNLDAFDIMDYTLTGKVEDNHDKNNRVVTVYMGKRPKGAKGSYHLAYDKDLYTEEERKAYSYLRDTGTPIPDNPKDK

Streptococcus = assay: GAS UMAA2166 growth inhibition – luminescence, BacTiterGlo, counter-screen for streptokinase expression inhibitor project, dose response (AID 1915); assay type: functional, organism-based;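 further: potency for reduction of bacterial viability or growth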
Bcl-2-related protein A1 = target: T6, Bcl-2-related protein A1 (Mus musculus, UniProt Q07440); assay type: functional;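 further: confirmatory dose–response counterscreen on Bfl-1, used to check hits from a UBC13 polyubiquitin inhibitor campaign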
T6 sequence (Q07440 whole entry): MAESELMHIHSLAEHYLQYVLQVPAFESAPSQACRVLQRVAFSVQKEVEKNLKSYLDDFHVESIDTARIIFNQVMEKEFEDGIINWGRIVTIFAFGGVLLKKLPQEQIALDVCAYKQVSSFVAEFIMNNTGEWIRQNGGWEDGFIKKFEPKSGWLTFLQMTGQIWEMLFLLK

[11] = target: T7, Ubiquitin-conjugating enzyme E2 N (Homo sapiens, UniProt P61088); assay type: functional
T7 sequence (P61088 whole entry): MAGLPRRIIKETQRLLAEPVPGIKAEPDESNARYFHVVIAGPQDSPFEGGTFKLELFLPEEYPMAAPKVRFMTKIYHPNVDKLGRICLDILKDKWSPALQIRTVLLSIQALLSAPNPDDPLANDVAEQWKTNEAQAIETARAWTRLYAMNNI

[12] = target: T7, Ubiquitin-conjugating enzyme E2 N; assay type: functional; remark: listed apart in the source
cells [13] = assay type: functional, cell-based
cells [14] = assay type: functional, cell-based; remark: listed apart in the source
Cytochrome P450 2C9 = Cytochrome P450 2C9 (Homo sapiens, UniProt P11712)
Cytochrome P450 2C9, sequence (P11712 whole entry): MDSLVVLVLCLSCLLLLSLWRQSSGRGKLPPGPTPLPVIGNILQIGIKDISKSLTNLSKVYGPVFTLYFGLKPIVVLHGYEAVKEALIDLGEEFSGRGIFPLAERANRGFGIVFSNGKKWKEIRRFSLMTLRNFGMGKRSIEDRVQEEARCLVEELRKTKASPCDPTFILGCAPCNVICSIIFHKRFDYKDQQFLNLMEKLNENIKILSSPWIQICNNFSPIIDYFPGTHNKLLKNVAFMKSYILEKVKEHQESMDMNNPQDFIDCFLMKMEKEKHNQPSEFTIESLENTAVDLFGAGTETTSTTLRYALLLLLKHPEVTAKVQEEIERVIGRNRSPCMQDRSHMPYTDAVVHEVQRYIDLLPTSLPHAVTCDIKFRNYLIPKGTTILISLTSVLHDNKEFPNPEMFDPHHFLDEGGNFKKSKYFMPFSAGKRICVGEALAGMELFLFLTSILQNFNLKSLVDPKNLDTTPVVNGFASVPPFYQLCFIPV

Nonstructural protein 1, sequence (Q194T2 whole entry): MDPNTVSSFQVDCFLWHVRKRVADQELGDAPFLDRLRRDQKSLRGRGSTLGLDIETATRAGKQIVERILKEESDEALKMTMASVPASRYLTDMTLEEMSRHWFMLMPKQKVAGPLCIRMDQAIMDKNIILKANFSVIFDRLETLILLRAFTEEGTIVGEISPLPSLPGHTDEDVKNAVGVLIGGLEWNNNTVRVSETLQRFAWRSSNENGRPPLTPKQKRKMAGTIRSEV
Glyceraldehyde-3-phosphate dehydrogenase, sequence (P04406 whole entry): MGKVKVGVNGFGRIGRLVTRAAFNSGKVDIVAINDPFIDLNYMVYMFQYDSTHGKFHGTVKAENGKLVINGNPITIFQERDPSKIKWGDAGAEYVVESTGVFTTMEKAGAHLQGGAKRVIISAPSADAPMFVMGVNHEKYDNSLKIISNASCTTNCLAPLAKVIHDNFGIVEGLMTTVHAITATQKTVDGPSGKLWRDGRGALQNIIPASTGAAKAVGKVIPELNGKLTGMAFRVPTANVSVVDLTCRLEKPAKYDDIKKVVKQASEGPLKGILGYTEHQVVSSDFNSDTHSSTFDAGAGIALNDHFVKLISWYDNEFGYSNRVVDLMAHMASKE
FAD-linked sulfhydryl oxidase ALR, sequence (P55789 whole entry): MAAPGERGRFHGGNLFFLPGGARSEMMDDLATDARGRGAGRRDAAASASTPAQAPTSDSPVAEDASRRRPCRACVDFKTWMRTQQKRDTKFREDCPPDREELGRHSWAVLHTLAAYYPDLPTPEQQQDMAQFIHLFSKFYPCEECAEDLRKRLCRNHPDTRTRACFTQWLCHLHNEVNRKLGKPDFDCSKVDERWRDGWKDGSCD
Voltage-dependent T-type calcium channel subunit alpha-1H, sequence (O95180 whole entry): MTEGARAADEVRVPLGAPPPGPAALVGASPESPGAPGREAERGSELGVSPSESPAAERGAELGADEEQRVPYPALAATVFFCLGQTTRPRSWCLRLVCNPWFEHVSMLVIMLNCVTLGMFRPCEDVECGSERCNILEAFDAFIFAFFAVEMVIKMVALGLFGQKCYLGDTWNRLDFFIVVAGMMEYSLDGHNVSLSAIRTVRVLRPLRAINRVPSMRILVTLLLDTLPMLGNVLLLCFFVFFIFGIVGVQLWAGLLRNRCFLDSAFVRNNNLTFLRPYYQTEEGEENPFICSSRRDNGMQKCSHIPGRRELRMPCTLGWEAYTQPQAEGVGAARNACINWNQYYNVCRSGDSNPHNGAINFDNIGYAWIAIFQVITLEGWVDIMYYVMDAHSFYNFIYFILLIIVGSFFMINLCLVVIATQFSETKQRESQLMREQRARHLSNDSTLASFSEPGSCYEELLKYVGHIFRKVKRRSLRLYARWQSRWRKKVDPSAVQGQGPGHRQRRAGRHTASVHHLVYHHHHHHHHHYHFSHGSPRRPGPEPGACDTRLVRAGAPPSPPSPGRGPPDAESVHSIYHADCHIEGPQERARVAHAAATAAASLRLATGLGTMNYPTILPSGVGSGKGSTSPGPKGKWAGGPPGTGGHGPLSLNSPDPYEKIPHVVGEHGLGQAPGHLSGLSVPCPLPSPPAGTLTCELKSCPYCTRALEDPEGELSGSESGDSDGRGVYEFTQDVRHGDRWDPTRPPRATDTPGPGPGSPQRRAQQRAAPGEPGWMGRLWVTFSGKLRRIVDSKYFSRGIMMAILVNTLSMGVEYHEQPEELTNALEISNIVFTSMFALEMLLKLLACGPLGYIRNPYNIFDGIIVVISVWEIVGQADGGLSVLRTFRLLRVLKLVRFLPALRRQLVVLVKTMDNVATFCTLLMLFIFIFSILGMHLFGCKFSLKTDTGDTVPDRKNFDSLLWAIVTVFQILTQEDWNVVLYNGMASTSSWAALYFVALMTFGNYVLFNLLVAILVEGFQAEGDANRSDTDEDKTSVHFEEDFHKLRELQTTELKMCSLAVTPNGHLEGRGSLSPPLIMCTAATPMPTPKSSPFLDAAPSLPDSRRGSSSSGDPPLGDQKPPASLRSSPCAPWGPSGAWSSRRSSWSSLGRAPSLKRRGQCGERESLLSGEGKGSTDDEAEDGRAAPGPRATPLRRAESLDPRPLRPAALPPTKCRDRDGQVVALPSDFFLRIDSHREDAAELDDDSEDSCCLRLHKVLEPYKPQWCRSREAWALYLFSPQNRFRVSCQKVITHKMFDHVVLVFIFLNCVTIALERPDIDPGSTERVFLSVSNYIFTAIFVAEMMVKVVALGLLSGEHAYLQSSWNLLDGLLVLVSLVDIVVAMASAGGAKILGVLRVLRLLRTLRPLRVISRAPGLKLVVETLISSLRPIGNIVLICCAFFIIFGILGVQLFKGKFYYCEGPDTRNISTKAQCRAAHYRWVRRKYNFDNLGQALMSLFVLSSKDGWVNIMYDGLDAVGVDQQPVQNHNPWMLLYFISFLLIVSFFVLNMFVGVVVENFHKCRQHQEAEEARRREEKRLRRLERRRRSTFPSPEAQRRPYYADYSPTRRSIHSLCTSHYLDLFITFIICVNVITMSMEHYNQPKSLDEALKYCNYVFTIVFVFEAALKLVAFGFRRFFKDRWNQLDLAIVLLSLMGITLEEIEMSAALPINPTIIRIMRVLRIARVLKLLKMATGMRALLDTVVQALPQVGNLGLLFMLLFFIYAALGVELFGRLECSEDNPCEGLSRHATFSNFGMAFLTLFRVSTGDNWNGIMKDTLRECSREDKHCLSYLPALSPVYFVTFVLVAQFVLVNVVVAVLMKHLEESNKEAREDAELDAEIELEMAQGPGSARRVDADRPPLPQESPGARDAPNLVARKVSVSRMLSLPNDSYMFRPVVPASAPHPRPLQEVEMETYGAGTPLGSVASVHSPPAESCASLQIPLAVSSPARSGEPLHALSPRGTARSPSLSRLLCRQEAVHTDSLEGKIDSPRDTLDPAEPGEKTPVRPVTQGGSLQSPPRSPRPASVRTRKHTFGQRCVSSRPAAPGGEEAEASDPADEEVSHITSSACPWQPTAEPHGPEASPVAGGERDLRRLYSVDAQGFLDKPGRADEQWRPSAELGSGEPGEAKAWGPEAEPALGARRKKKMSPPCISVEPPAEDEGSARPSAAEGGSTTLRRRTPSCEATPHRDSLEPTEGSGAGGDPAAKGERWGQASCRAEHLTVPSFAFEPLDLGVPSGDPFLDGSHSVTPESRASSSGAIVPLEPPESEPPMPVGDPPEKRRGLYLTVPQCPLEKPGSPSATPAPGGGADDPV
Cytochrome P450 2D6, sequence (P10635 whole entry): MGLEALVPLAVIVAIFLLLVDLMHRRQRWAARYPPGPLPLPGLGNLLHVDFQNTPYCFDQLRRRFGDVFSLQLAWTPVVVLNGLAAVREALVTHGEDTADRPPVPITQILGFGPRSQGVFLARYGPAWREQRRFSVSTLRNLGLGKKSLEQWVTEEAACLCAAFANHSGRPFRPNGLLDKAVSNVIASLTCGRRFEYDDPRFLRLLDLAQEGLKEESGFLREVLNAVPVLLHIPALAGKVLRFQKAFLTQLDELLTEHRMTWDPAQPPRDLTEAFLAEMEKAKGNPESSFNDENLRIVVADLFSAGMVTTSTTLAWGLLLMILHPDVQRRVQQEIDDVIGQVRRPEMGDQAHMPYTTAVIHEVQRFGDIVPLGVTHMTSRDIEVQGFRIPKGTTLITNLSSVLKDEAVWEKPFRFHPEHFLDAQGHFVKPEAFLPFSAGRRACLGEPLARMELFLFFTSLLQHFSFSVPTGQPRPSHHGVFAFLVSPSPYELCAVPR

COc1ccc(NC(=O)CSc2n[nH]c(-c3ccccn3)n2)cc1
IC50 (Nonstructural protein 1): 4.25 µM (active)

COc1cccc(C(=O)N(Cc2nc(-c3cccc(C)c3)no2)C(C)C)c1OC
CC50 [1]: 30.6 µM (active) | EC50 [2]: 12.7 µM (active) | IC50 (cells [3]): 4.69 µM (active)

CCc1nc2c(c(=O)c3ccccc3n2C)c(=O)n1-c1ccc(F)cc1
IC50 (Hexokinase HKDC1): 7.9 µM (active)

Cc1ccc(-c2nc3ccccn3c2Nc2ccccc2)o1
CC50 [4]: > 40 µM (active) | AC50 [5]: 0.235 µM (active) | IC50 (cells [6]): 19.7 µM (active)

O=S(=O)(Nc1cccnc1)c1cc(Cl)cc(Cl)c1O
IC50 [7]: > 100 µM (not active) | IC50 [8]: > 100 µM (inactive)

Cc1ccc(NC(=O)CSCC(N)=O)cc1C
IC50 (Coagulation factor XII): > 50 µM (inactive)

O=C(CSc1nnc(CCCN2C(=O)c3cccc4cccc(c34)C2=O)n1-c1ccccc1)N1CCCCC1
IC50 (Hexokinase HKDC1): 11.4 µM (active)

O=C(Cc1ccccc1)NC(NC(=S)Nc1cc(Cl)ccc1Cl)C(Cl)(Cl)Cl (configuration not stated)
IC50 [9]: > 50 µM (not active) | IC50 (Coagulation factor XII): > 50 µM (inactive) | AC50 (Cytochrome P450 2D6): 3.16 µM (inconclusive)

O=C(CN(Cc1cccs1)C(=O)CCC(=O)Nc1nccs1)NCc1ccccc1
IC50 (Coagulation factor XII): > 50 µM (inactive)

c1cncc(-c2cncnc2)c1
IC50 [7]: > 100 µM (not active) | IC50 [8]: > 100 µM (inactive)

CC1CC(C)(C)n2c(O)c(/N=N/C(=N)S)c3cccc1c32 (configuration not stated)
EC50 [10]: 9.25 µM (active) | EC50 (Streptokinase A): > 150 µM (not active) | EC50 (Streptococcus): > 150 µM (not active) | IC50 (Bcl-2-related protein A1): > 20 µM (inactive) | IC50 [11]: 6.33 µM (active) | IC50 [12]: 4.95 µM (active)

O=C(O)c1ccc(/N=C/c2c(O)ccc3ccccc23)cc1
IC50 (Hexokinase HKDC1): 38.1 µM (inactive)

N#C/C(=N\Nc1ccccc1)C(N)=S
IC50 (Coagulation factor XII): > 50 µM (inactive)

COc1ccc(C(=O)N/N=C/c2cccc3cccnc23)cc1
EC50 (cells [13]): 15.5 µM (active) | EC50 (cells [14]): > 350 µM (not active) | CC50 [4]: 14.7 µM (active) | IC50 (Nonstructural protein 1): 5.8 µM (active) | IC50 (cells [6]): 3.44 µM (active) | AC50 (Cytochrome P450 2C9): inconclusive
